Assay results reported in PubChem BioAssay (NCI).
Several values for one entry are separate records, joined by “and”; a condition that tells them apart may be missing. Equal entries are not always repeated.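 Grown in 96-well plates, cells were treated for 48 hours with each compound at five concentrations. Insufficient inhibition: endpoint recorded as highest concentration tested. GI50 is the concentration that inhibits growth by half. At the TGI there is no net growth.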

Key:
Assay in all cases: inhibition of tumour cell growth, NCI panel, 48 h
[1] = test system: A549 NSCLC
[2] = test system: CCRF-CEM leukemia
[3] = test system: HCC-2998 colon
[4] = test system: HL-60(TB) leukemia
[5] = test system: HOP-62 NSCLC
[6] = test system: OVCAR-4 ovarian
[7] = test system: OVCAR-5 ovarian
[8] = test system: RXF 393 renal
[9] = test system: U251 CNS
[10] = test system: UACC-62 melanoma

Compound	GI50 [1]	TGI [1]	GI50 [2]	TGI [2]	GI50 [3]	TGI [3]	GI50 [4] [µM]	TGI [4] [µM]	GI50 [5]	TGI [5]	GI50 [6]	TGI [6]	GI50 [7]	TGI [7]	GI50 [8]	TGI [8]	GI50 [9]	TGI [9]	GI50 [10]	TGI [10]
CNC(=O)c1cc(COc2nnc(Nc3ccc(Cl)cc3)c3ccoc23)ccn1	4.66 µM and > 10 µM	20.1 µM and > 10 µM	26.9 µM and > 10 µM	> 79.5 µM	17 µM and > 10 µM	52.7 µM and > 10 µM	> 100	> 100	3.31 µM and 9.48 µM	16 µM and > 10 µM	2.87 µM and 3.16 µM	11.7 µM and > 10 µM	12.3 µM and > 10 µM	38.9 µM and > 10 µM	2.99 µM and 9.09 µM	11 µM and > 10 µM	5.34 µM and 4.26 µM	16.8 µM and > 10 µM	6.3 µM and > 10 µM	30.3 µM and > 10 µM
Cc1ccc(C(=O)N(CCCN)[C@@H](c2nc3cc(Cl)ccc3c(=O)n2Cc2ccccc2)C(C)C)cc1	< 0.01 µM	1.4 µM and 1.71 µM	< 0.01 µM	3.3 µM and 1.46 µM	< 0.01 µM	1.23 µM and 0.912 µM	< 0.01	0.482	< 0.01 µM and 0.01 µM	2.07 µM and 2.09 µM	1.28 µM and 1.13 µM	3.54 µM and 2.46 µM	< 0.01 µM	2.02 µM and 1.74 µM	< 0.01 µM		< 0.01 µM	1.19 µM and 1.53 µM	< 0.01 µM	1.91 µM and 1.57 µM
C(=Nc1ccccc1)C1CCCC[N-]1.C(=Nc1ccccc1)C1CCCC[N-]1.[Cu+2].[O-][Cl+3]([O-])([O-])O (centres undefined)	> 36.8 µM	> 57.1 µM	6.3 µM	36.6 µM	2.4 µM	24.4 µM	6.26	31.5	15.5 µM	54.6 µM	26 µM	84.4 µM	14.8 µM	31.6 µM	38.2 µM	> 100 µM	10.7 µM	30.4 µM	5 µM	22.8 µM
Cc1c2cc[nH]c(=O)c2c(C)c2c1[nH]c1cc(OCCN3CCN(C)CC3)ccc12	0.452 µM	1.96 µM	1.58 µM	8.99 µM	1.26 µM	7.24 µM	1.44	4.36	0.469 µM	3.24 µM	1.17 µM	4.82 µM	0.944 µM	11.6 µM	1.21 µM	2.72 µM	0.953 µM	6.66 µM	1.13 µM	2.9 µM
